What was measured:
[1] = system: nitrification; assay: Example 5: soil incubation in bottles with ammonium sulfate, DMPSA, DCD or mixtures, 5 to 15° C., 0 up to 56 days; recovery NH4 (RE/RC), net recovery NH4 (NE/NC), inhibition of NO3 formation (IE/IC, Böhland; Colby); design: unit not given here
Method: 100 g soil is filled into 500 ml plastic bottles (e.g. soil sampled from the field) and is moistened to 50% water holding capacity. The soil is incubated at 20° C. for two weeks to activate the microbial biomass. 1 ml test solution, containing the compositions and mixtures of the invention in the appropriate concentration, or DMSO and 5 to 10 mg nitrogen in the form of ammoniumsulfate-N is added to the soil and everything mixed well. Bottles are capped but loosely to allow air exchange. The bottles are then incubated at 5 to 15° C. for 0 up to 56 days.
For analysis, 300 ml of a 1% K2SO4-solution is added to the bottle containing the soil and shaken for 2 hrs in a horizontal shaker at 150 rpm. Then the whole solution is filtered through a Macherey-Nagel Filter MN 807′/. Ammonium and nitrate content is then analyzed in the filtrate in an autoanalyzer at 550 nm (Merck, AA11).
The Böhland equation is described in Böhland, H., et al. (1973) “Mittel zur Hemmung bzw. Regelung der Nitrifikation von Ammoniumstickstoff in Kulturböden”. DDR-Wirtschaftspatent (Economic patent of the German Democratic Republic) C 05c 169 727. Cited by: Peschke, H. (1985) “Zur Bewertung der inhibierenden Wirkung von Nitrifiziden im Boden”, Zbl. Mikrobiol. 140, pp. 583-588.

[2] = system: nitrification; assay: Example 3: soil column trial (soil Limburgerhof) with ammonium sulfate, DMPP, DMPSA or DMPP+DMPSA; leaching at 5° C., incubation 10 d or 20 d at 15° C.; NH4-N/NO3-N, % inhibition of NO3-N formation (Böhland), Colby; details: 0.05% DMPP, 0.45% DMPSA
From the text: The effect on NH4^+ retention and NH4^+ to NO3^− ratios in the soil after fertilization of ammonium sulfate with the addition of DMPP, DMPSA or a combination of DMPP and DMPSA was investigated in column trials simulating climatic conditions of spring time in central Europe. Soil Limburgerhof (pH(CaCl2) 6.8, texture: 73% sand; 24% silt, 3% clay) was filled dry into a glass column with an inner width of 4 cm. At the bottom 0.4 g cotton wool was placed above which a frit (Co. Robu, pore size 1) was placed above which 100 g of 2 mm sieved soil Limburgerhof was layered. The soil height in the column was about 7 cm. Before fertilization the soil was brought to about 60% of its water holding capacity (WHC) be adding 14.4 mL of deionized water. Per column 10 mg NH4—N as ammonium sulfate was fertilized or not (control) together or not with 0.05% DMPP (DMPP obtained from BASF SE), 0.45% DMPSA (DMPSA used as free acid obtained from BASF SE) and 0.05% DMPP plus 0.45% DMPSA (% of nitrification inhibitor w/w of NH4—N). Every treatment was replicated three times.
After fertilization, 50 mL demineralized water was carefully and slowly placed on top of each column which equals about 31 mm precipitation. After 24 h the eluate was collected and by sucking off the soil to bring it back to about 60% of its WHC. All handlings including soil preparation, fertilization and the temperature of the water for both wetting the soil and the artificial precipitation up to the collection of the eluate 24 h after fertilization was performed at 5° C.
Thereafter, the columns were incubated for 10 d or 20 d at constantly 15° C. in an incubator. After 7 d and 14 d, water was added by weight where needed to bring the soils uniformly to 60% WHC. After 10 d or 20 d, the soil was removed from the columns and extracted with 1% (w/w) K2SO4 solution by shaking for 2 h at room temperature. The filtrated extract was then analyzed for NH4^+ and NO3 colorimetrical by an autoanalyzer.
To calculate the inhibition of nitrate formation by the nitrification inhibitors during the incubation, the above-mentioned Böhland equation was used. To examine synergistic effects of the combination of DMPP+DMPSA the formula by Colby (Colby, S.R., “Calculating synergistic and antagonistic responses of herbicide Combinations”, Weeds, 15, pp. 20-22, 1967) was used. To determine background levels of NH4+ to NO3−, every treatment was also extracted immediately after fertilization and after leaching prior to the further incubation at 15° C. for 10 d or 20 d.

[3] = 10 days of incubation at 15° C.
[4] = 20 days of incubation at 15° C.

**Q.** For “2-(3,4-dimethyl-1H-pyrazol-1-yl)succinic acid and/or 2-(4,5-dimethyl-1H-pyrazol-1-yl)succinic acid [DMPSA]”, which “IE (inhibition of NO3 formation, Böhland)” value ([1]; IT10° C., DAT42, % a.i. DMPSA 0.50, DCD 0.08) is on record?
**A.** Its value is 52.

**Q.** And the “IE (inhibition of NO3 formation, Böhland)” value ([1]; IT10° C., DAT56, % a.i. DMPSA 0.25, DCD 1)?
**A.** Its value is 65.

**Q.** And the “IE (inhibition of NO3 formation, Böhland)” value ([1]; IT10° C., DAT56, % a.i. DMPSA 0.25, DCD 3)?
**A.** Its value is 65.

**Q.** And the “IE (inhibition of NO3 formation, Böhland)” value ([1]; IT10° C., DAT56, % a.i. DMPSA 0.30, DCD 0.05)?
**A.** The value was 47.

**Q.** And the “IE (inhibition of NO3 formation, Böhland)” value ([1]; IT10° C., DAT56, % a.i. DMPSA 0.50, DCD 0.08)?
**A.** The value was 47.

**Q.** What about the “IE inhibition of NO3 formation” value ([1]; IT15° C., DAT10, % a.i.: DMPSA 0.5, DCD 1, DMPSA + DCD 0.5 + 1 (1:2)) of the same substance?
**A.** The value was 50.

**Q.** And the “IE inhibition of NO3 formation” value ([1]; IT15° C., DAT10, % a.i.: DMPSA 0.5, DCD 3, DMPSA + DCD 0.5 + 3 (1:6))?
**A.** The value was 50.

**Q.** And the “IE inhibition of NO3 formation” value ([1]; IT15° C., DAT20, % a.i.: DMPSA 0.5, DCD 1, DMPSA + DCD 0.5 + 1 (1:2))?
**A.** Its value is 74.

**Q.** And the “IE inhibition of NO3 formation” value ([1]; IT15° C., DAT20, % a.i.: DMPSA 0.5, DCD 3, DMPSA + DCD 0.5 + 3 (1:6))?
**A.** The value was 74.

**Q.** And the “IE (inhibition of NO3 formation, Böhland)” value ([1]; IT15° C., DAT28, % a.i. DMPSA 0.25, DCD 1)?
**A.** The value was 70.

**Q.** What about the “IE (inhibition of NO3 formation, Böhland)” value ([1]; IT15° C., DAT28, % a.i. DMPSA 0.25, DCD 3) of the same substance?
**A.** The value was 70.

**Q.** What about the “IE inhibition of NO3 formation” value ([1]; IT15° C., DAT28, % a.i.: DMPSA 0.30, DCD 0.05, DMPSA + DCD 0.30 + 0.05 (6:1)) of the same substance?
**A.** The value was 39.

**Q.** And the “IE inhibition of NO3 formation” value ([1]; IT15° C., DAT28, % a.i.: DMPSA 0.50, DCD 0.0125, DMPSA + DCD 0.50 + 0.0125 (40:1))?
**A.** The value was 44.

**Q.** And the “IE inhibition of NO3 formation” value ([1]; IT15° C., DAT28, % a.i.: DMPSA 0.50, DCD 0.0143, DMPSA + DCD 0.50 + 0.0143 (35:1))?
**A.** Its value is 44.

**Q.** What about the “IE inhibition of NO3 formation” value ([1]; IT15° C., DAT28, % a.i.: DMPSA 0.50, DCD 0.0167, DMPSA + DCD 0.50 + 0.0167 (30:1)) of the same substance?
**A.** The value was 44.

**Q.** And the “IE inhibition of NO3 formation” value ([1]; IT15° C., DAT28, % a.i.: DMPSA 0.50, DCD 0.08, DMPSA + DCD 0.50 + 0.08 (6.25:1))?
**A.** Its value is 40.

**Q.** What about the “IE inhibition of NO3 formation” value ([1]; IT15° C., DAT30, % a.i.: DMPSA 0.5, DCD 1, DMPSA + DCD 0.5 + 1 (1:2)) of the same substance?
**A.** Its value is 74.

**Q.** What about the “IE inhibition of NO3 formation” value ([1]; IT15° C., DAT30, % a.i.: DMPSA 0.5, DCD 3, DMPSA + DCD 0.5 + 3 (1:6)) of the same substance?
**A.** Its value is 74.

**Q.** And the “IE (inhibition of NO3 formation, Böhland)” value ([1]; IT15° C., DAT42, % a.i. DMPSA 0.25, DCD 1)?
**A.** The value was 55.

**Q.** What about the “IE (inhibition of NO3 formation, Böhland)” value ([1]; IT15° C., DAT42, % a.i. DMPSA 0.25, DCD 3) of the same substance?
**A.** Its value is 55.

**Q.** And the “IE inhibition of NO3 formation” value ([1]; IT15° C., DAT42, % a.i.: DMPSA 0.30, DCD 0.05, DMPSA + DCD 0.30 + 0.05 (6:1))?
**A.** The value was 29.

**Q.** What about the “IE inhibition of NO3 formation” value ([1]; IT15° C., DAT42, % a.i.: DMPSA 0.50, DCD 0.08, DMPSA + DCD 0.50 + 0.08 (6.25:1)) of the same substance?
**A.** The value was 44.

**Q.** What about the “IE (inhibition of NO3 formation, Böhland)” value ([1]; IT15° C., DAT56, % a.i. DMPSA 0.25, DCD 1) of the same substance?
**A.** Its value is 35.

**Q.** What about the “IE (inhibition of NO3 formation, Böhland)” value ([1]; IT15° C., DAT56, % a.i. DMPSA 0.25, DCD 3) of the same substance?
**A.** The value was 35.

**Q.** What about the “IE inhibition of NO3 formation” value ([1]; IT15° C., DAT56, % a.i.: DMPSA 0.30, DCD 0.05, DMPSA + DCD 0.30 + 0.05 (6:1)) of the same substance?
**A.** Its value is 27.

**Q.** And the “IE inhibition of NO3 formation” value ([1]; IT15° C., DAT56, % a.i.: DMPSA 0.50, DCD 0.08, DMPSA + DCD 0.50 + 0.08 (6.25:1))?
**A.** The value was 27.

**Q.** And the “During incubation: % inhibition of NO3—N formation by NI acc. to Böhland equation (1973) (MV)” value [2, 3]?
**A.** Its value is 14.2%.

**Q.** And the “Net NI effect % NH4 from fertilized NH4 (MV)” value [2, 3]?
**A.** Its value is 6.88%.

**Q.** And the “Ratio NH4—N/NO3—N (MV)” value [2, 3]?
**A.** Its value is 0.53.

**Q.** And the “Soil mg/100 g NH4—N (MV)” value [2, 3]?
**A.** The value was 3.16 mg/100 g.

**Q.** And the “Soil mg/100 g NO3—N (MV)” value [2, 3]?
**A.** The value was 6.30 mg/100 g.

**Q.** What about the “During incubation: % inhibition of NO3—N formation by NI acc. to Böhland equation (1973) (MV)” value [2, 4] of the same substance?
**A.** Its value is 4.8%.

**Q.** And the “Net NI effect % NH4 from fertilized NH4 (MV)” value [2, 4]?
**A.** The value was 1.79%.

**Q.** What about the “Ratio NH4—N/NO3—N (MV)” value [2, 4] of the same substance?
**A.** The value was 0.02.

**Q.** What about the “Soil mg/100 g NH4—N (MV)” value [2, 4] of the same substance?
**A.** The value was 0.19 mg/100 g.

**Q.** And the “Soil mg/100 g NO3—N (MV)” value [2, 4]?
**A.** The value was 9.60 mg/100 g.

— patent publication US20210371351A1, “MIXTURES COMPRISING AT LEAST TWO DIFFERENT NITRIFICATION INHIBITORS SELECTED FROM 2-(3,4-DIMETHYL-1H-PYRAZOL-1-YL)SUCCINIC ACID (DMPSA), 3,4-DIMETHYL PYRAZOLIUM GLYCOLATE (DMPG) AND OTHER COMPOUNDS” (BASF SE, priority 2017, published 2021)
